Legend:
[1] = test system: Rac1; design: method as in PMID 22383527; conditions: Rac1 activity in MDA-MB-435 melanoma cells; cited from earlier work
[2] = biological target: Rac1 (Homo sapiens, UniProt P63000); experiment: Immunofluorescence assay with anti-Rac1/GTP on parasitophorous vacuole; type: cell-based; design: endogenous in cells; host or cells: erythrocytes from whole blood of 7 donors; conditions: 1.4 μM, 20 h
Experimental: We thus decided to investigate the Rac1 activation state in infected erythrocytes treated with EHop-016 and in the untreated control. To do this, we applied a methodology that allows us to specifically measure Rac1 activation levels on the parasitophorous vacuole. Freshly invaded erythrocytes were thus exposed to 1.4 μM EHop-016 treatment for 20 h and then smeared and analyzed by an immunofluorescence assay (IFA) with an antibody that specifically recognizes Rac1 in its active form (anti-Rac1/GTP). The resulting fluorescence signal was measured both in the EHop-016-treated sample and in the untreated control.
Cytotoxicity was evaluated on Human Microvascular Endothelial Cells (HMEC-1) maintained in MCDB-131 medium supplemented with 10% foetal calf serum (Euroclone), 20mM HEPES and 2 mM L-glutamine. […]
Immuno-fluorescence assay
Synchronous mature schizonts were purified by 60% Percoll gradient and allowed to invade fresh human RBCs for two hours. […] Negative controls without primary antibodies have been performed, resulting in complete absence of fluorescence s ignals. Anti-Rac1/GTP fluorescence signal was measured by using the software ImageJ (the parasitophorous vacuole area was delimited based on the anti-Exp1 signal). At least 40 cells were analyzed in each sample.

[3] = test system: P. falciparum W2 asexual parasites; experiment: Association experiments (isobologram), W2 parasites; type: cell-based, Plasmodium falciparum; conditions: in combination with 1A116, W2 parasites
Experimental: The effect of 1A116 on the IC50 of EHop-016 was determined by potentiation tests as previously described ([62]). Isobolograms were created by plotting a pair of fractional IC50s for each combination of EHop-016 and 1A116. […] The corresponding 1A116 fractional IC50s were calculated by dividing each fixed concentration by the IC50 of 1A116 alone and plotted on the vertical axis.

[4] = test system: P. falciparum asexual parasites, chloroquine-resistant W2 strain; experiment: Drug susceptibility assay (pLDH), asexual parasites, W2 strain; type: cell-based, Plasmodium falciparum; conditions: Plasmodium falciparum, W2, chloroquine-resistant W2 strain; read-out: IC50, W2 strain
Experimental: (§1) Chloroquine (CQ)-sensitive (D10, wild-type 3D7, or transgenic 3D7elo1-pfs16-CBG99) and CQ-resistant (W2) strains of P. falciparum were cultured as described previously ([58]), with slight modifications, as detailed in the supplemental material.
(§2) Asexual parasite growth was determined spectrophotometrically (optical density at 650 nm [OD650]) by measuring the activity of parasite lactate dehydrogenase (pLDH), according to a modified version of the method of Makler et al. ([59]). Gametocyte viability was measured by a luminescence method described previously ([60]). Details for the two methods are reported in the supplemental material. From either the OD or ALU (arbitrary luminescence units), the percentages of viability were calculated according to the formula 100 × (treated sample signal − blank signal)/(untreated control signal − blank signal). The blank for the pLDH assay was uninfected RBCs at the same hematocrit as that of parasitized RBCs, and the blank for the luminescence assay was parasites treated with a high dose of methylene blue. […]
The CQ-sensitive (D10) and the CQ-resistant (W2) strains were maintained at 5% hematocrit […]
supplemented with 1% AlbuMaxII (lipid-rich bovine serum albumin) (Invitrogen), 0.01% hypoxantine (Sigma), 20mM Hepes (EuroClone), 2 mM glutamine (EuroClone). […]
In vitro P. falciparum drug susceptibility assay […]
plate were transferred to a plate containing 100µl of Malstat reagent (0.11% [vol/vol] Triton- […]
dinucleotide [APAD] [Sigma-Aldrich], adjusted to pH 9 with 1 M HCl) and 25 µl of PES/NBT […]
pLDHassay. The plate was read at a wavelength of 650 nm using a microplate reader, Synergy4 […]
Uninfected RBC at the same HCT than parasites were used as blank. […]

[5] = test system: 3D7 mature gametocytes; experiment: Gametocyte viability luminescence assay, mature gametocytes; type: cell-based, Plasmodium falciparum; conditions: Plasmodium falciparum, 3D7; stage V gametocytes, 72 h, luminescence; read-out: Mean IC50 ± SD, 3D7 mature gametocytes
Experimental: as §1, §2
strain (wild type or transgenic 3D7elo1-pfs16-CBG99 strain) was cultured in similar conditions, except for 10% naturally clotted Human O+ serum instead of AlbuMaxII and human type O-positive instead of A-positive RBCs. […]
in a standard gas mixture consisting of 1% O2, 5% CO2, 94% N2. Immature (stage II-III) and mature (stage V) gametocytes were obtained as described1. Briefly, cultures were diluted to 0.5% parasitemia at 5% HCT, and the medium was changed daily until parasites were stressed by nutrient deprivation. N-acetylglucosamine (NAG) (Sigma-Aldrich) 50 mM was then added to clear residual asexual parasites: Stage II and III gametocytes were obtained 4 days after NAG addition to the culture, while stage IV and V gametocytes were used 11 to 13 days from NAG addition. Gametocyte stages were routinely checked on Giemsa-stained smears. […]
Drug treated gametocyte cultures were transferred to 96-well black microplates and D-luciferin (1 mM in citrate buffer 0.1 M, pH 5.5) was added at a 1:1 volume ratio. Luminescence measurements were performed after 10 min with 500 ms integration time. Gametocytes treated

Structure (SMILES): CCn1c2ccccc2c2cc(Nc3ccnc(NCCCN4CCOCC4)n3)ccc21 [EHop-016]
- IC50 [1]: 1100 nM
- anti-Rac1/GTP fluorescence intensity of parasitophorous vacuoles vs untreated control [2]: significantly lower
- effect of combination (isobologram analysis) [3]: additive effect
- fractional inhibitory concentration (FIC) [3]: < 2
- IC50 [4]: 322 ± 28.5 nM
- IC50 [5]: 4650 ± 520 nM

Reference: paper PMC8765435, “In Vitro Antimalarial Activity of Inhibitors of the Human GTPase Rac1” (Antimicrobial Agents and Chemotherapy, 2022)
